{
  "source": "patent US9572349B2",
  "about": "(priority 2009, dated 2017)",
  "tested_on": "D. citri",
  "assay_type": "in vivo, Diaphorina citri",
  "settings": "four-arm olfactometer; for Percentage of individuals that chose each compound, final choice / Percentage of individuals that chose each compound, first choice: 10 μL pure compound in two arms versus clean air in two arms, 5 min observation; for Behavioural response of psyllids to pure compound (in words): 10 μL pure compound versus clean air",
  "data": [
    {"smiles": "CC1=CC[C@H]2[C@H]3[C@@H]1[C@]2(C)CC[C@H]3C(C)C", "note": "[α-copaene]", "values": [
      {"measurement": "Percentage of individuals that chose each compound, final choice", "result": 33.0, "unit": "%"},
      {"measurement": "Percentage of individuals that chose each compound, first choice", "result": 42.0, "unit": "%"},
      {"measurement": "Behavioural response of psyllids to pure compound (in words)", "result": "higher level of psyllids entering the unscented arm"}
    ]},
    {"smiles": "C=C1CC/C=C(\\C)CC[C@@H]2[C@@H]1CC2(C)C", "note": "[β-caryophyllene]", "values": [
      {"measurement": "Percentage of individuals that chose each compound, final choice", "result": 32.0, "unit": "%"},
      {"measurement": "Percentage of individuals that chose each compound, first choice", "result": 42.3, "unit": "%"},
      {"measurement": "Behavioural response of psyllids to pure compound (in words)", "result": "higher level of psyllids entering the unscented arm"}
    ]}
  ]
}
